The numbers were not newly measured in patent US20060257347A1, “Self-preservation system” (priority 2005, published 2006), which cites them from elsewhere.

Common to all, as to conditions: hinokitiol alone; known to be
The subject of data set [1] is Escherichia coli (ATCC No. 8739).
For data set [2], the system named is Pseudomonas aeruginosa (ATCC No. 9027).
Data set [3] relates to Staphylococcus aureus (ATCC No. 6538).
Data set [4] relates to Candida albicans (ATCC No. 10231).
Data set [5] deals with Aspergillus niger (ATCC No. 16404).

Each structure is given as a SMILES string. ≈ marks a conversion by molar mass, not a printed value.

Regarding `CC(C)c1cccc(=O)c(O)c1` [hinokitiol, Hinokitiol], the “MIC (Minimum Inhibitory Concentration) Escherichia coli” value in data set [1] is 40.0 mg/mL (≈ 244 mM). Further, the “MIC (Minimum Inhibitory Concentration) Pseudomonas aeruginosa” value in data set [2] was 50.0 mg/mL (≈ 304 mM). Moreover, the “MIC (Minimum Inhibitory Concentration) Staphylococcus aureus” value in data set [3] is 40.0 mg/mL (≈ 244 mM). Further, the “MIC (Minimum Inhibitory Concentration) Candida albicans” value in data set [4] was 12.5 mg/mL (≈ 76.1 mM). In data set [5], the “MIC (Minimum Inhibitory Concentration) Aspergillus niger” value was 40.0 mg/mL (≈ 244 mM).
